In one experiment the test system is HT-29. As to the kind of experiment: Effect on total JAK2 protein level in IL4-induced human HT-29 cells at 1 uM to 100 uM by SDS-polyacrylamide gel electrophoresis and Western blot method. Format: functional, cell-based. A general note: Immunoblotting shows a protein as a band on a membrane.
The target of experiment [1] is Tyrosine-protein kinase JAK2 (Homo sapiens, UniProt O60674). In words: Inhibition of IL4-induced JAK2 autophosphorylation in human HT-29 cells by SDS-polyacrylamide gel electrophoresis and Western blot method. It counts as cell-based.

The term IC50 denotes the point on the concentration scale where inhibition reaches its midpoint. Read a low IC50 as inhibition by little substance.

The source made the active and inactive calls. The rule behind the calls is not given here.

Tyrosine-protein kinase JAK2, sequence (O60674 whole entry): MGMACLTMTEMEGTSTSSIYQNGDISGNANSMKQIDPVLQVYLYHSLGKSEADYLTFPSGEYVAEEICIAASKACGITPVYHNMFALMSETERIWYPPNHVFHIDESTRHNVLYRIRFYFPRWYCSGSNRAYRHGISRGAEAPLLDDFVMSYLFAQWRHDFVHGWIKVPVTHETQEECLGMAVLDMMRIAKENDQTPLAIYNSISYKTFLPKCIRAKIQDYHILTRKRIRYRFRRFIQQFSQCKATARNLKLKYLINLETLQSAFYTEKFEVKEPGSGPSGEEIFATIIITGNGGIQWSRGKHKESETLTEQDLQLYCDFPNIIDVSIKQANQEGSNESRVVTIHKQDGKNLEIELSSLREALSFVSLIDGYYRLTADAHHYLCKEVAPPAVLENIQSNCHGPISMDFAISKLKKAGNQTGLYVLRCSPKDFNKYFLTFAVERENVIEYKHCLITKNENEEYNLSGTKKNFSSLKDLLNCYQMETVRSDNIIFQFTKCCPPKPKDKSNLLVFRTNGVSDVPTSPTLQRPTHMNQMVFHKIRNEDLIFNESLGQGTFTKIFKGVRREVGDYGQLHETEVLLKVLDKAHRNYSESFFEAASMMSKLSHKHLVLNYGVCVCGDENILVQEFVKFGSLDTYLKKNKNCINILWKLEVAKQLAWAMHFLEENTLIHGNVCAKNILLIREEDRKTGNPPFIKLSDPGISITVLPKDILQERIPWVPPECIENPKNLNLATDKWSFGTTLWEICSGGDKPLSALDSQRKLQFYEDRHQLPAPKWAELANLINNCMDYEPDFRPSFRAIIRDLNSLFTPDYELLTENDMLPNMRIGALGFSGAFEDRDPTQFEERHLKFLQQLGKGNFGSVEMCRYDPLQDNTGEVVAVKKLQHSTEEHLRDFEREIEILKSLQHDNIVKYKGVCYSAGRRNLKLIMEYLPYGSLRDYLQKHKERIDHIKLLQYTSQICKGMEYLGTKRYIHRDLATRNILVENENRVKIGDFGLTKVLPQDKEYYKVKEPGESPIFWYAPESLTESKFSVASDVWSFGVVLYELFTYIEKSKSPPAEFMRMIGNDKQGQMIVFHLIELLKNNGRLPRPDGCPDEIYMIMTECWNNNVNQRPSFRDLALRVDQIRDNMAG

As to `CCCCN(C)c1ncc(NS(=O)(=O)c2ccccc2C)cc1C(=O)O`, the result in the experiment on HT-29 was inactive. Consider `COc1cccc(NC(=O)c2cnc(Nc3cccc(OC)c3)c([N+](=O)[O-])c2)c1`, for which the outcome in the experiment with HT-29 was inactive. In addition, half-maximal inhibition in experiment [1] (IC50) required 8.5 µM. Take `COc1cccc(NC(=O)c2cnc(N3CCN(c4ccccc4OC)CC3)c([N+](=O)[O-])c2)c1`: the result with HT-29 was inactive. Besides, in experiment [1], 9.5 µM corresponded to half-maximal inhibition (IC50).

Regarding `Cc1ccccc1S(=O)(=O)Nc1cnc(N2CCCCC2)c(C(=O)O)c1`, the outcome in the experiment with HT-29 was inactive. The same molecule had an IC50 in experiment [1] of 6.9 µM.

For the origin of these results see ChEMBL document CHEMBL3397032, “Computer-aided discovery of aminopyridines as novel JAK2 inhibitors” (Bioorg Med Chem, 2015).
